Measured values as given in PubChem BioAssay (NCI).
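Briefly, cells in 96-well plates were exposed to five compound concentrations for 48 h, and endpoints were estimated by linear interpolation. GI50 marks 50% less growth. TGI: concentration producing complete growth inhibition.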

Experiments:
Test in all cases: DTP human tumour cell line panel, 48 h
[1] = system: NCI-H226 lung
[2] = system: NCI-H23 lung
[3] = system: NCI-H460 lung
[4] = system: NCI-H522 lung
[5] = system: NCI/ADR-RES ovarian
[6] = system: OVCAR-4 ovarian
[7] = system: OVCAR-5 ovarian
[8] = system: OVCAR-8 ovarian
[9] = system: PC-3 prostate
[10] = system: RPMI-8226 leukemia
[11] = system: RXF 393 renal
[12] = system: SF-268 CNS
[13] = system: SF-295 CNS
[14] = system: SF-539 CNS
[15] = system: SK-MEL-2 melanoma
[16] = system: SK-MEL-28 melanoma
[17] = system: SK-MEL-5 melanoma
[18] = system: SK-OV-3 ovarian
[19] = system: SN12C renal
[20] = system: SNB-19 CNS
[21] = system: SNB-75 CNS
[22] = system: SR leukemia
[23] = system: SW-620 colon
[24] = system: T-47D breast
[25] = system: TK-10 renal
[26] = system: U251 CNS
[27] = system: UACC-257 melanoma
[28] = system: UACC-62 melanoma
[29] = system: UO-31 renal

## Nn1c(=O)n(-c2cccc(C(F)(F)F)c2)c(=O)c2cc(-c3ccc(F)cc3F)ccc21
[1]
  TGI: 4840 nM
[2]
  GI50: 1080 nM
  TGI: 4200 nM
[3]
  GI50: 776 nM
  TGI: 8030 nM
[4]
  GI50: 390 nM
  TGI: 2550 nM
[5]
  GI50: 1840 nM
  TGI: 9170 nM
[6]
  GI50: 2550 nM
  TGI: > 100000 nM
[7]
  GI50: 3510 nM
  TGI: 19000 nM
[8]
  GI50: 1220 nM
  TGI: 6520 nM
[9]
  GI50: 653 nM
  TGI: 4140 nM
[10]
  GI50: 319 nM
  TGI: 1520 nM
[11]
  GI50: 1120 nM
  TGI: 3110 nM
[12]
  GI50: 1910 nM
  TGI: 10900 nM
[13]
  GI50: 1760 nM
  TGI: 3760 nM
[14]
  GI50: 1730 nM
  TGI: 8230 nM
[15]
  GI50: 449 nM
  TGI: 2070 nM
[16]
  GI50: 1450 nM
  TGI: 6650 nM
[17]
  GI50: 338 nM
  TGI: 1240 nM
[18]
  GI50: 1290 nM
  TGI: 3390 nM
[19]
  GI50: 991 nM
  TGI: 5360 nM
[20]
  GI50: 1070 nM
  TGI: 13300 nM
[21]
  GI50: 1670 nM
  TGI: 6370 nM
[22]
  GI50: 1210 nM
  TGI: 5940 nM
[23]
  GI50: 1620 nM
  TGI: 4410 nM
[24]
  GI50: 1690 nM
  TGI: 7020 nM
[25]
  GI50: 4070 nM
  TGI: 8740 nM
[26]
  GI50: 1510 nM
  TGI: 9920 nM
[27]
  GI50: 1050 nM
  TGI: 3970 nM
[28]
  GI50: 296 nM
  TGI: 1140 nM
[29]
  GI50: 2270 nM
  TGI: 8800 nM
